Article PMC11643962, “Exploring 4,7-Disubstituted Pyrimido[4,5-d]pyrimidines as Antiviral and Anticancer Agents” (Molecules, 2024)

Experiments:
[1] = system: influenza A/H3N2 (A/HK/7/87); assay: Antiviral CPE reduction assay, influenza A/H3N2 in MDCK cells; format: cell-based, influenza A virus; conditions: MDCK cells; CPE reduction, MTS; mean ± SD of two or three independent experiments; read-out: Antiviral Activity (EC50) Influenza H3N2
[2] = system: Zika virus (ZikV mr766); assay: Antiviral CPE reduction assay, Zika virus mr766 in VeroE6 cells; format: cell-based; conditions: MTS, mean ± SD, no unit printed on the supplement page (Table 2 of the same screen is in µM)
[3] = system: influenza B (B/Ned/537/05); assay: Antiviral CPE reduction assay, influenza B in MDCK cells; format: cell-based, influenza B virus; conditions: MDCK cells; CPE reduction, MTS; mean ± SD of two or three independent experiments; read-out: Antiviral Activity (EC50) Influenza B
[4] = system: MDCK cells
[5] = system: Capan-1 (pancreatic adenocarcinoma); assay: MTS proliferation assay, Capan-1; conditions: read-out: Anti-Proliferative Activity (IC50) Capan-1; 72 h, MTS; mean ± SD of two independent experiments
[6] = system: K-562 (chronic myeloid leukemia); assay: MTS proliferation assay, K-562; conditions: read-out: Anti-Proliferative Activity (IC50) K-562; 72 h, MTS; mean ± SD of two independent experiments
[7] = system: Z-138 (non-Hodgkin lymphoma); assay: MTS proliferation assay, Z-138; conditions: read-out: Anti-Proliferative Activity (IC50) Z-138; 72 h, MTS; mean ± SD of two independent experiments
[8] = system: HCoV-NL63; assay: Antiviral CPE reduction assay, HCoV-NL63 in Hep3B cells; format: cell-based, human coronavirus NL63; conditions: MTS, mean ± SD of two or three independent experiments
[9] = system: VeroE6 cells
[10] = system: HL-60 (acute myeloid leukemia); assay: MTS proliferation assay, HL-60; conditions: read-out: Anti-Proliferative Activity (IC50) HL-60; 72 h, MTS; mean ± SD of two independent experiments
[11] = system: HCoV-OC43; assay: Antiviral CPE reduction assay, HCoV-OC43 in HEL299 cells; format: cell-based, human coronavirus OC43; conditions: MTS, mean ± SD of two or three independent experiments
[12] = system: herpes simplex virus-1 (HSV-1 KOS); assay: Antiviral CPE reduction assay, HSV-1 KOS in HEL299 cells; format: cell-based; conditions: MTS, mean ± SD, no unit printed on the supplement page (Table 2 of the same screen is in µM)
[13] = system: LN-229 (glioblastoma); assay: MTS proliferation assay, LN-229; conditions: read-out: Anti-Proliferative Activity (IC50) LN-229; 72 h, MTS; mean ± SD of two independent experiments
[14] = system: HCT-116 (colorectal carcinoma); assay: MTS proliferation assay, HCT-116; conditions: read-out: Anti-Proliferative Activity (IC50) HCT-116; 72 h, MTS; mean ± SD of two independent experiments
[15] = system: NCI-H460 (lung carcinoma); assay: MTS proliferation assay, NCI-H460; conditions: read-out: Anti-Proliferative Activity (IC50) NCI-H460; 72 h, MTS; mean ± SD of two independent experiments
[16] = system: respiratory syncytial virus A (RSV A Long); assay: Antiviral CPE reduction assay, RSV A Long in Hep2 cells; format: cell-based; conditions: Hep2 cells; CPE reduction, MTS; mean ± SD of two or three independent experiments; read-out: Antiviral Activity (EC50) RSV A Long
[17] = system: influenza A/H1N1 (A/Ned/378/05); assay: Antiviral CPE reduction assay, influenza A/H1N1 in MDCK cells; format: cell-based, influenza A virus; conditions: MDCK cells; CPE reduction, MTS; mean ± SD of two or three independent experiments; read-out: Antiviral Activity (EC50) Influenza H1N1
[18] = system: Hep2 cells
[19] = system: HCoV-229E; assay: Antiviral CPE reduction assay, HCoV-229E in HEL299 cells; format: cell-based, human coronavirus 229E; conditions: MTS, mean ± SD of two or three independent experiments
[20] = system: eight diverse human cancer cell lines
[21] = system: DND-41 (acute lymphoblastic leukemia); assay: MTS proliferation assay, DND-41; conditions: read-out: Anti-Proliferative Activity (IC50) DND-41; 72 h, MTS; mean ± SD of two independent experiments
[22] = system: yellow fever virus (YFV 17D); assay: microbe, parasite or virus in culture; format: cell-based; conditions: VeroE6 cells; CPE reduction, MTS; mean ± SD; no unit printed on the supplement page (Table 2 of the same screen is in µM); read-out: Antiviral activity (EC50) YFV 17D
[23] = system: Hep3B cells
[24] = system: HEL299 cells

C=CC(=O)Nc1cccc(Nc2nc(Nc3ccc(NC4CN(CCF)C4)cc3OC)ncc2C(F)(F)F)c1 [CNX-2006, reference compound]
EC50 [1]: > 100 µM | EC50 [2]: > 100 µM | EC50 [3]: > 100 µM | CC50 [4]: 1700 ± 400 nM | IC50 [5]: 1700 ± 10 nM | IC50 [6]: 11.5 ± 0.06 µM | IC50 [7]: 2600 ± 500 nM | EC50 [8]: > 100 µM | CC50 [9]: 9.2 ± 1.1 µM | IC50 [10]: 3.8 ± 1.4 µM | EC50 [11]: 2200 ± 800 nM | EC50 [12]: > 100 µM | IC50 [13]: 8.2 ± 1.2 µM | IC50 [14]: 6.6 ± 0.7 µM | IC50 [15]: 8.7 ± 1.9 µM | EC50 [16]: > 100 µM | EC50 [17]: > 100 µM | CC50 [18]: 11.7 ± 0.8 µM | EC50 [19]: 1800 ± 200 nM | CC50 [20]: < 10 µM | IC50 [21]: 4.5 ± 0.2 µM | EC50 [22]: > 100 µM | CC50 [23]: 4.3 ± 1.8 µM | CC50 [24]: 11.1 ± 1 µM
